Data taken from US5877147A, “Compounds for medicinal use” (Peptech (UK) Limited, priority 1993, dated 1999).

What was measured:
[1] = system: lung and peritoneal macrophages; settings: orally administered, non-liposome encapsulated; cited from earlier work
melanoma metastases = settings: orally administered, non-liposome encapsulated; cited from earlier work
IgA = IgA levels in treated patients (mucosal immunity); type: in vivo, human; settings: in words
[2] = system: Human Papilloma Virus (HPV) infection of the uterine cervix
Description: (§1) The study group consisted of 50 women between 20 and 30 years of age (mean 26.7) with HPV of the cervix. The duration of the disease varied from 1 to 3.5 years. […] To control for variation in Ig content of cervical secretions during the menstrual cycle, treatment was commenced 8-10 days after the beginning of the period.
(§2) Follow up studies on the clinical progression of the HPV infection were performed

[3] = system: Ig in saliva and genital tract secretions; settings: 3 days after 1 mg GMDP orally x 10 days
Text: as §1
(§3) A number of immunological parameters were monitored before the beginning of treatment; immunoglobulin (Ig) in serum (radial immunodiffusion), Ig in saliva and genital tract secretions (ELISA), subpopulations of immune cells (immunocytofluorimetry).
as §2
(§4) Control values for immunological parameters were also taken from a group of women free of HPV infection. Their age range was 20 to 30 years with a mean of 25.6.

[4] = system: immunoglobulin (Ig) in serum; settings: 3 days after 1 mg GMDP orally x 10 days
Text: as §1, §3, §2, §4

[5] = system: subpopulations of immune cells; settings: blood, 3 days after 1 mg GMDP orally x 10 days
Text: as §1, §3, §2, §4

mice = settings: cited from earlier work
[6] = that of MDP = 100%; cited from earlier work

Q: Which “tumouricidal activity in lung and peritoneal macrophages” value [1] does the source give for `CCCCCCCCCCCCCCCC(=O)OC[C@H](COP(=O)([O-])OCCNC(=O)[C@H](C)NC(=O)CC[C@@H](NC(=O)[C@H](C)NC(=O)[C@@H](C)O[C@H]1[C@H](O)[C@@H](CO)OC(O)[C@@H]1NC(C)=O)C(N)=O)OC(=O)CCCCCCCCCCCCCCC.O.[Na+]` (stereo partly drawn) [MTP-PE, N-acetyl-muramyl-L-alanyl-D-isoglutaminyl-L-alanyl-2-(1',2'-dipalmitoyl-sn-glycero-3'-hydroxy-phosphoryloxy)ethylamide, monosodium] here?
A: produced tumouricidal activity

Q: And the “eradicating well established melanoma metastases” value (melanoma metastases)?
A: not effective

Q: What about the “inhibiting lung and lymph node metastasis” value (melanoma metastases) of the same compound?
A: effective

Q: Which “levels of IgA in treated patients” value (IgA) does the source give for “N-acetyl-D-glucosaminyl-(β1-4)-N-acetylmuramyl-L-alanyl-D-glutamic acid [GMDP-A]” here?
A: especially high

Q: Which “Recurrence of HPV, number of patients” value ([2]; 30 in group, 1 mg GMDP orally daily for 10 days, adjunct therapy, placebo 7 of 20) does the source give for `CC(=O)NC1C(OC2C(CO)OC(O)C(NC(C)=O)C2OC(C)C(=O)NC(C)C(=O)NC(CCC(=O)O)C(N)=O)OC(CO)C(O)C1O` [GMDP, N-acetyl-D-glucosaminyl-(β1-4)-N-acetylmuramyl-L-alanyl-D-isoglutamine] here?
A: 3

Q: And the “Recurrence of HPV, % of group” value ([2]; 30 in group, 1 mg GMDP orally daily for 10 days, adjunct therapy, placebo 35%)?
A: 10%

Q: What about the “Full Cure, number of patients” value ([2]; 30 in group, 1 mg GMDP orally daily for 10 days, adjunct to antibiotics, laser and cryotherapy, placebo 13 of 20) of the same compound?
A: 27

Q: What about the “Full Cure, % of group” value ([2]; 30 in group, 1 mg GMDP orally daily for 10 days, adjunct to laser and cryotherapy, placebo 65%) of the same compound?
A: 90%

Q: What about the “rate of cure versus placebo group” value ([2]; GMDP as adjunct to laser and cryotherapy, in words) of the same compound?
A: increase in the rate of cure

Q: What about the “Mucus of uterine cervix IgD, after treatment” value ([3]; before 0.326 ± 0.16, spread 0.17) of the same compound?
A: 0.315 mg/dL

Q: What about the “Saliva IgM, after treatment” value ([3]; before 3.17 ± 1.05, spread 1.11) of the same compound?
A: 1.65 mg/dL

Q: And the “Mucus of uterine cervix IgM, after treatment” value ([3]; before 3.18 ± 2.21, spread 1.65)?
A: 1.8 mg/dL

Q: What about the “Mucus of uterine cervix IgG, after treatment” value ([3]; before 9.57 ± 2.19, spread 3.01) of the same compound?
A: 12.01 mg/dL

Q: What about the “Saliva IgA, after treatment” value ([3]; before 11.45 ± 3.48, spread 2.98) of the same compound?
A: 13.16 mg/dL

Q: And the “Saliva IgG, after treatment” value ([3]; before 16.19 ± 4.01, spread 4.88)?
A: 15.05 mg/dL

Q: What about the “Saliva sIgA, after treatment” value ([3]; before 26.53 ± 5.23, spread 4.96) of the same compound?
A: 25.46 mg/dL

Q: What about the “Serum IgM, after treatment” value ([4]; before 123.8 ± 10.4, spread 11.2, p<0.01 vs before) of the same compound?
A: 160.8 mg/dL

Q: And the “Serum IgA, after treatment” value ([4]; before 216.0 ± 16.8, spread 18.2)?
A: 228.7 mg/dL

Q: What about the “Serum IgG, after treatment” value ([4]; before 1424 ± 48, spread 51, p<0.01 vs before) of the same compound?
A: 1258 mg/dL

Q: What about the “B-cells %, after treatment” value ([5]; before 5.30 ± 0.8, spread 1.07) of the same compound?
A: 5.08%

Q: What about the “CD16 +ve %, after treatment” value ([5]; before 16.3 ± 2.1, spread 2.3) of the same compound?
A: 13.1%

Q: And the “CD8 +ve %, after treatment” value ([5]; before 24.2 ± 2.87, spread 3.17)?
A: 20.3%

Q: And the “Lymphocytes %, after treatment” value ([5]; before 34.11 ± 3.16, spread 2.68)?
A: 35.77%

Q: And the “CD4 +ve %, after treatment” value ([5]; before 34.6 ± 3.1, spread 3.8)?
A: 41.8%

Q: And the “CD3 ve %, after treatment” value ([5]; before 55.8 ± 4.1, spread 3.6)?
A: 59.12%

Q: And the “B-cells absolute, after treatment” value ([5]; before 80.1 ± 12.1, spread 21.7)?
A: 103.8

Q: What about the “CD16 +ve absolute, after treatment” value ([5]; before 246.3 ± 31.7, spread 47.1) of the same compound?
A: 268.1

Q: What about the “CD8 +ve absolute, after treatment” value ([5]; before 365.7 ± 43.4, spread 64.9) of the same compound?
A: 415.3

Q: And the “levels of IgA in treated patients” value (IgA)?
A: especially high

Q: And the “LD50 (acute toxicity)” value (mice)?
A: 7000 mg/kg

Q: And the “pyrogenicity relative to MDP” value [6]?
A: about 50%
